Assay results from paper PMC4482410, “A Peptide Mimetic of 5-Acetylneuraminic Acid-Galactose Binds with High Avidity to Siglecs and NKG2D” (PLoS ONE, 2015).
“Also recorded” adds a separate entry of the source. Where no end group is shown, it is not given here. The star is where a group is joined. Biotin = O=C1N[C@H]2[C@H](CS[C@H]2CCCCC(=O)*)N1

Legend:
NKG2D [1] = target: T1, NKG2D (Homo sapiens, UniProt P26718); test: inhibition of binding of svH1C to NKG2D; settings: added with 2 μM svH1C; PBS/0.05% Tween-20; average of single values from three separate assays; fetuin 5, 10, 30 μM; sialyllactose 12, 20, 40 μM
T1 construct: the extracellular lectin-type domain was fused at the N-terminus with a human IgG1 Fc domain; purchased R&D Systems, Inc., Minneapolis, MN
T1 sequence (P26718 73-216 limits assumed): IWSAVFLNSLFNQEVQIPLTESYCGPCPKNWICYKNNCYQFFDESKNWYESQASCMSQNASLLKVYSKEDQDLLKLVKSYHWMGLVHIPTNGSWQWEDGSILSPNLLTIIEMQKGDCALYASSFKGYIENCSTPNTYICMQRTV
Method: (§1) Isothermal microcalorimetry was performed by TA Instruments Professional Services (New Castle, DE) by titrating 10 μM NKG2D (monomer concentration) (R&D Systems, Inc., Minneapolis, MN) with 100 μM svH1C in 50 mM Tris-HCl, pH 7.5, 150 mM NaCl, 0.1 mM EDTA. Recombinant human receptors were obtained from R&D Systems as chimeric proteins. NKG2D is a type II transmembrane protein and the extracellular lectin-type domain was fused at the N-terminus with a human IgG1 Fc domain. Recombinant siglecs contained a C-terminal IgG1 Fc domain or a His6–10 tag. The lyophilized proteins were reconstituted in phosphate-buffered saline, pH 7.2 (PBS), to 100 μg/mL. The Fc-chimeric proteins were bound to protein A/G-coated wells of microtiter plates (Pierce Biotechnology). His-tagged proteins were bound in Nickel-coated plates (Pierce Biotechnology). Sufficient proteins were added to wells to saturate the binding capacity of the wells. After a wash to remove unbound receptor, wells were blocked with 1% gelatin in wash buffer. […] Absorbance was measured at 450 nm and converted to the amount of streptavidin-peroxidase bound with the specific activity of the conjugate determined under the conditions of the assay. […]
Fig 4 Binding of svH1C to NKG2D. (A) The amount of bound peptide was measured after extensive washing with PBS containing 0.05% Tween-20. […]

CD45 (Homo sapiens) = CD45 (Homo sapiens) (UniProt P08575); settings: cited from earlier work
Sequence of CD45 (Homo sapiens) (P08575 26-577): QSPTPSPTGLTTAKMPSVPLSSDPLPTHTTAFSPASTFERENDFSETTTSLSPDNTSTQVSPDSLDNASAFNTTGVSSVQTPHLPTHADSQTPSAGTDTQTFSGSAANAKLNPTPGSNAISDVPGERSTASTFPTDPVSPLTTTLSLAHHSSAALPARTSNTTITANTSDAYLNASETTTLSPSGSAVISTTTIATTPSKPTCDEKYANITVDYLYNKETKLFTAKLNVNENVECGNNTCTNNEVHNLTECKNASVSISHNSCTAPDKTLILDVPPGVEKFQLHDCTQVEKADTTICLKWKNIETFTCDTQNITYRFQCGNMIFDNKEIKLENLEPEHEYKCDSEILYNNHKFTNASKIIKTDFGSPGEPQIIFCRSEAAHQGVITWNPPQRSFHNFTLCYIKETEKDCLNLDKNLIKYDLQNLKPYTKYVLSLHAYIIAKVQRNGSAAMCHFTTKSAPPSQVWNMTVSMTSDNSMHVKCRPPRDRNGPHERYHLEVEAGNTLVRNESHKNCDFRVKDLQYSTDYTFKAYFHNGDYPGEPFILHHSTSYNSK

siglecs [2] = test: solid-phase binding of biotinylated tetravalent peptides to siglecs; parameters: species or system human; settings: biotinylated peptides 2 μM
Method: as §1, with “buffer. Wash buffers were either 10 mM phosphate, pH 7.2; 10 mM HEPES, pH 7.4; or 50 mM Tris-HCl, pH.7.5, each in 150 mM NaCl containing 0.05% Tween-20. Biotinylated peptides were prepared as 2 μM solutions in the wash buffer and 50 μL (100 pmoles) were added to each well and incubated at room temperature for one hour. After four washes with 350 μL buffer containing 0.05% Tween-20, each assay was incubated with 50 μL of 1 μg/mL streptavidin-peroxidase (Sigma-Aldrich, St. Louis, MO).” for “buffer.”
MAA is a mixture of M. amurensis leukoagglutinin (MAL) and M. amurensis hemagglutinin (MAH), both of which along with SNA1 bind preferentially to terminal Neu5Ac-Gal- sequences on complex glycans. Binding of the peptide to several lectins specific for monosaccharides was not detected. […]

[3] = tested on: lectins that bind monosaccharides; settings: Neu5Ac, Gal, GalNAc or fucose lectins; ref [29],[30]; cited from earlier work
Text: We initially identified several sequences of amino acids that bound to specific plant lectins by screening phage display libraries. Sequences were further refined by in silico modeling of docking of a peptide into the sugar binding site of the crystal structures of lectins. These studies predicted that several short peptide sequences, 5 to 8 amino acids in length, would have significant affinity to lectins chosen as analogs of cell-surface receptors. […] MAA is a mixture of M. amurensis leukoagglutinin (MAL) and M. amurensis hemagglutinin (MAH), both of which along with SNA1 bind preferentially to terminal Neu5Ac-Gal- sequences on complex glycans. Binding of the peptide to several lectins specific for monosaccharides was not detected. We then assayed binding of svH1C to several siglecs, which comprise a family of cell-surface receptors that are specific for Neu5Ac-Gal/GalNAc- sequ ...

Siglec-2 = settings: ref Kelm et al. [68], cited from earlier work
Text: Most siglecs are inhibitory receptors containing an ITIM [9–12] and express full activity when a ligand is bound. As documented with Siglec-2 on B cells, a functional ligand binding site is required for tyrosine phosphorylation, recruitment of the phosphatase SHP-1, and inhibition of B cell activation.

plant lectins = settings: ref [29]; cited from earlier work
Text: NKG2D is a homodimeric, type II receptor whose recognized ligands are cell-surface proteins MICA and MICB, which are major histocompatibility complex class I homologs. Other polypeptide ligands include ULBP, Rae-1 and H60 [26]. Extensive studies of binding of MICA and MICB [24–26] have shown that each homodimer binds a single ligand at the interface of the subunits. Each subunit of NKG2D also contains a lectin domain that binds glycans with specificity for Neu5Ac(α2,3)Gal. […] Binding was inhibited by fet ...

siglecs [4] = test: inhibition of binding of svH1C to siglecs; parameters: species or system human; settings: fetuin 10 μM or 30 μM; average of single values in two assays
Method: as §1
Fig 3 Binding of svH1C to lectin-type receptors. […] SEM was determined for six assays from four independent experiments. […]

[5] = target: T2, recombinant human NKG2D, Fc chimera (human, UniProt P26718 73-216); test: ELISA; inhibition: fetuin (5, 10 or 30 μM) added along with 2 μM biotinylated svH1C to immobilised receptor; PBS with 0.05% Tween-20
T2 construct: NKG2D, human, extracellular lectin-type domain; Type II transmembrane protein; source: bought: R&D Systems; not shown: Fc (human IgG1), N-terminal, kept
T2 sequence (looked up): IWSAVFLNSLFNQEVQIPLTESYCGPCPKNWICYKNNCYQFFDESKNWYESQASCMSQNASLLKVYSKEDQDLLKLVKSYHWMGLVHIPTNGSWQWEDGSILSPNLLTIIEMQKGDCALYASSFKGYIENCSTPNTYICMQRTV

NKG2D [6] = settings: approximately; ref [24]–[26]; cited from earlier work
Method: NKG2D lacks a signaling motif in its cytoplasmic domain and functions as an activating receptor in association with adaptor proteins, DAP10 and DAP12 [75]. In addition to NKG2D, NK cells express other activating cytotoxicity receptors such as NKp30, NKp44 and NKp46. These receptors bind to tandemly multivalent heparan sulfate/heparin sequences with KD values of 0.3 to 2 μM [76]. Similarly to NKG2D, NKp46 also binds multivalent sialyl-Lewis^X with a KD of approximately 0.6 μM [77]. The native in vivo ligands for NKG2D are divergent proteins, MIC-A/B, ULBP, Rae-1 or H60, which bind the rec ...

**Q.** With sialyllactose [reference compound] as the molecule, how does the IC50 (NKG2D [1]) read?
**A.** ~18 µM

**Q.** For Siglec-2 (CD22) (from UniProt P20273), which Kd (CD45 (Homo sapiens)) is on record?
**A.** 117 µM

**Q.** Which “binding of biotinylated tetravalent peptides to siglecs” value (siglecs [2]) does the source give for HPSLK [sv6B] here?
**A.** also bound to siglecs

**Q.** And the “avidity to lectins that bind monosaccharides, relative to natural ligands” value [3]?
**A.** several orders of magnitude greater than their natural ligands

**Q.** Which “binding of biotinylated tetravalent peptides to siglecs” value (siglecs [2]) does the source give for “[(VGGGSGGGS)2K]2K-ε-biotinyl-K-NH2 [peptide used as a negative control, reference compound]” here?
**A.** no binding

**Q.** Which IC50 (Siglec-2; after cells were treated with neuraminidase) does the source give for `CO[C@]1(C(=O)O)C[C@H](O)[C@@H](NC(C)=O)[C@H]([C@H](O)[C@H](O)CNC(=O)c2ccc(-c3ccccc3)cc2)O1` [BPC-Neu5Ac] here?
**A.** 4 µM

**Q.** What about the “tyrosine phosphorylation and inhibitory activity of Siglec-2” value (Siglec-2) of the same molecule?
**A.** reduced tyrosine phosphorylation and attenuated the receptor’s inhibitory activity

**Q.** For “digestion of fetuin with neuraminidase: fetuin digested with neuraminidase”, which “competition with svH1C for binding to plant lectins” value (plant lectins) is on record?
**A.** nearly eliminated its ability to inhibit binding

**Q.** Which “inhibition of binding of svH1C to siglecs by fetuin” value (siglecs [4]) does the source give for “fetuin: fetal bovine fetuin (purity, 88%; cat. no. 341506, Calbiochem)” here?
**A.** inhibited; also recorded: as effective an inhibitor of binding of svH1C to NKG2D as it was of the binding of the peptide to siglecs

**Q.** And the “competition with svH1C for binding to plant lectins” value (plant lectins)?
**A.** effectively competed

B1: fetal bovine fetuin (natural protein, UniProt P12763 19-359, looked up)
chain: IPLDPVAGYKEPACDDPDTEQAALAAVDYINKHLPRGYKHTLNQIDSVKVWPRRPTGEVYDIEIDTLETTCHVLDPTPLANCSVRQQTQHAVEGDCDIHVLKQDGQFSVLFTKCDSSPDSAEDVRKLCPDCPLLAPLNDSRVVHAVEVALATFNAESNGSYLQLVEISRAQFVPLPVSVSVEFAVAATDCIAKEVVDPTKCNLLAEKQYGFCKGSVIQKALGGEDVRVTCTLFQTQPVIPQPQPDGAEAEAPSAVPDAAGPTPSAAGPPVASVVVGPSVVAVPLPLHRAHYDLRHTFSGVASVESSSGEAFHVGKTPIVGQPSIPGGPVRLCPGRIRYFKI
modifications: three N-linked and three O-linked glycans per molecule, with termini Neu5Ac(α2,3)Gal or Neu5Ac(α2,6)Gal
notes: fetuin, fetal bovine; source: bought: Calbiochem, EMD Chemicals (purity, 88%)
**Q.** Which IC50 ([5]; both partners purified) does the source give for B1 here?
**A.** ~3 µM

B2: svH1C, biotin-tagged tetravalent peptide [(…)2K]2K-ε-biotinyl-K-NH2 (peptide)
chain 1: NPSHPLSGGGGS
chain 2: KKKK(Biotin)-NH2
modifications: also: tetravalent branched: four NPSHPLSGGGGS arms on tri-lysine core joined by peptide and iso-peptide bonds
**Q.** What does the source list for B2?
**A.** binding constant estimated from the inhibition by fetuin [5]: 1 µM; streptavidin-peroxidase conjugate bound (average 100% value, without inhibitor) [5]: 2.4 ng

B3: MIC-A/B: native in vivo ligands for NKG2D; major histocompatibility complex class I homologs (protein, UniProt Q29983 24-383; Q29980 23-383, looked up)
MHC class I … 1: EPHSLRYNLTVLSWDGSVQSGFLTEVHLDGQPFLRCDRQKCRAKPQGQWAEDVLGNKTWDRETRDLTGNGKDLRMTLAHIKDQKEGLHSLQEIRVCEIHEDNSTRSSQHFYYDGELFLSQNLETKEWTMPQSSRAQTLAMNVRNFLKEDAMKTKTHYHAMHADCLQELRRYLKSGVVLRRTVPPMVNVTRSEASEGNITVTCRASGFYPWNITLSWRQDGVSLSHDTQQWGDVLPDGNGTYQTWVATRICQGEEQRFTCYMEHSGNHSTHPVPSGKVLVLQSHWQTFHVSAVAAAAIFVIIIFYVRCCKKKTSAAEGPELVSLQVLDQHPVGTSDHRDATQLGFQPLMSDLGSTGSTEGA
MHC class I … 2: AEPHSLRYNLMVLSQDGSVQSGFLAEGHLDGQPFLRYDRQKRRAKPQGQWAENVLGAKTWDTETEDLTENGQDLRRTLTHIKDQKGGLHSLQEIRVCEIHEDSSTRGSRHFYYDGELFLSQNLETQESTVPQSSRAQTLAMNVTNFWKEDAMKTKTHYRAMQADCLQKLQRYLKSGVAIRRTVPPMVNVTCSEVSEGNITVTCRASSFYPRNITLTWRQDGVSLSHNTQQWGDVLPDGNGTYQTWVATRIRQGEEQRFTCYMEHSGNHGTHPVPSGKALVLQSQRTDFPYVSAAMPCFVIIIILCVPCCKKKTSAAEGPELVSLQVLDQHPVGTGDHRDAAQLGFQPLMSATGSTGSTEGT
**Q.** For B3, which Kd (NKG2D [6]) is on record?
**A.** ~1 µM
